Results reported in ChEMBL document CHEMBL3739366, “Discovery of HTL6641, a dual orexin receptor antagonist with differentiated pharmacodynamic properties” (Medchemcomm, 2015).

test system: not listed separately; assay: Half life in rat liver microsomes; type: ADME; conditions: not given

| SMILES | half-life [min] |
| --- | --- |
| COc1cc(F)c(CN2C(=O)N(c3cnc(OC)c(OC)c3)S(=O)(=O)c3ccccc32)c(F)c1 | 9 |
| CNc1cc(N2C(=O)N(Cc3c(F)cc(OC)cc3F)c3ncccc3S2(=O)=O)cnc1OC | 7 |
| COc1ccc(N2C(=O)N(Cc3c(F)cc(F)cc3F)c3ncccc3S2(=O)=O)nc1OC | 16 |
| COc1cc(F)c(CN2C(=O)N(c3ccc(OC)c(OC)n3)S(=O)(=O)c3ccccc32)c(F)c1 | 8 |
| COc1cc(N2C(=O)N(Cc3c(F)cc(F)cc3F)c3ccccc3S2(=O)=O)cnc1OC | 28 |

test system: Rattus norvegicus; assay: AUC (infinity) in Sprague-Dawley rat at 2 mg/kg, po; type: ADME, organism-based; set-up: dose 2 mg/kg, route oral, time infinity; conditions: in vivo

| SMILES | AUC [ng·h/mL] |
| --- | --- |
| COc1ccc(N2C(=O)N(Cc3c(F)cc(F)cc3F)c3ncccc3S2(=O)=O)nc1OC | 401 |
| COc1cc(N2C(=O)N(Cc3c(F)cc(F)cc3F)c3ccccc3S2(=O)=O)cnc1OC | 558 |

test system: not listed separately; assay: Clearance in beagle dog at 2 mg/kg, iv; type: ADME, organism-based, Canis lupus familiaris; conditions: in vivo

| SMILES | clearance [mL/min/kg] |
| --- | --- |
| COc1cc(N2C(=O)N(Cc3c(F)cc(F)cc3F)c3ccccc3S2(=O)=O)cnc1OC | 5 |

test system: not listed separately; assay: Volume of distribution at steady state in Sprague-Dawley rat at 1 mg/kg, iv; type: ADME, organism-based; conditions: in vivo, read-out: Vdss

| SMILES | Vd [L/kg] |
| --- | --- |
| COc1ccc(N2C(=O)N(Cc3c(F)cc(F)cc3F)c3ncccc3S2(=O)=O)nc1OC | 2.3 |
| COc1cc(N2C(=O)N(Cc3c(F)cc(F)cc3F)c3ccccc3S2(=O)=O)cnc1OC | 2.2 |

test system: Canis familiaris; assay: AUC (infinity) in beagle dog at 2 mg/kg, po; type: ADME, organism-based, Canis lupus familiaris; set-up: dose 2 mg/kg, route oral, time infinity; conditions: in vivo

| SMILES | AUC [ng·h/mL] |
| --- | --- |
| COc1cc(N2C(=O)N(Cc3c(F)cc(F)cc3F)c3ccccc3S2(=O)=O)cnc1OC | 6960 |

molecular target: Orexin/Hypocretin receptor type 2 (Homo sapiens) (UniProt O43614); conditions: not given

| SMILES | T1/2 [min] |
| --- | --- |
| COc1cc(N2C(=O)N(Cc3c(F)cc(F)cc3F)c3ccccc3S2(=O)=O)cnc1OC | 4.3 |

test system: not listed separately; assay: Clearance in Sprague-Dawley rat at 1 mg/kg, iv; type: ADME, organism-based; conditions: in vivo

| SMILES | clearance [mL/min/kg] |
| --- | --- |
| COc1ccc(N2C(=O)N(Cc3c(F)cc(F)cc3F)c3ncccc3S2(=O)=O)nc1OC | 29 |
| COc1cc(N2C(=O)N(Cc3c(F)cc(F)cc3F)c3ccccc3S2(=O)=O)cnc1OC | 18 |

test system: not listed separately; assay: Ratio of drug level in cerebrospinal fluid to brain in Sprague-Dawley rat at 1 mg/kg, iv after 0.5 hrs; type: ADME, organism-based, CSF/Brain; conditions: in vivo

| SMILES | Ratio |
| --- | --- |
| COc1ccc(N2C(=O)N(Cc3c(F)cc(F)cc3F)c3ncccc3S2(=O)=O)nc1OC | 0.01 |
| COc1cc(N2C(=O)N(Cc3c(F)cc(F)cc3F)c3ccccc3S2(=O)=O)cnc1OC | 0.01 |

test system: not listed separately; assay: Tmax in Sprague-Dawley rat at 2 mg/kg, po; type: ADME, organism-based; conditions: in vivo

| SMILES | Tmax [min] |
| --- | --- |
| COc1ccc(N2C(=O)N(Cc3c(F)cc(F)cc3F)c3ncccc3S2(=O)=O)nc1OC | 30 |
| COc1cc(N2C(=O)N(Cc3c(F)cc(F)cc3F)c3ccccc3S2(=O)=O)cnc1OC | 90 |

test system: not listed separately; assay: Ratio of drug level in brain to plasma in Sprague-Dawley rat at 1 mg/kg, iv after 0.5 hrs; type: ADME, organism-based; conditions: read-out: BPR

| SMILES | Kp at 0.5 h |
| --- | --- |
| COc1ccc(N2C(=O)N(Cc3c(F)cc(F)cc3F)c3ncccc3S2(=O)=O)nc1OC | 0.84 |
| COc1cc(N2C(=O)N(Cc3c(F)cc(F)cc3F)c3ccccc3S2(=O)=O)cnc1OC | 0.77 |

test system: not listed separately; assay: Tmax in beagle dog at 2 mg/kg, po; type: ADME, organism-based, Canis lupus familiaris; conditions: in vivo

| SMILES | Tmax [min] |
| --- | --- |
| COc1cc(N2C(=O)N(Cc3c(F)cc(F)cc3F)c3ccccc3S2(=O)=O)cnc1OC | 24 |

test system: not listed separately; assay: Half life in Sprague-Dawley rat at 2 mg/kg, po; type: ADME, organism-based; conditions: in vivo

| SMILES | half-life [min] |
| --- | --- |
| COc1ccc(N2C(=O)N(Cc3c(F)cc(F)cc3F)c3ncccc3S2(=O)=O)nc1OC | 78 |
| COc1cc(N2C(=O)N(Cc3c(F)cc(F)cc3F)c3ccccc3S2(=O)=O)cnc1OC | 96 |

molecular target: T1, Orexin/Hypocretin receptor type 1 (Homo sapiens, UniProt O43613); assay: Displacement of [3H]-4-(2,6-Difluoro-4-methoxybenzyl)-2-(5,6-dimethoxypyridin-3-yl)-2H-1,2,4-benzothiadiazin-3(4H)-one 1,1-dioxide from orexin receptor-1 (unknown origin) after 90 mins; conditions: not given
T1 sequence (O43613 whole entry): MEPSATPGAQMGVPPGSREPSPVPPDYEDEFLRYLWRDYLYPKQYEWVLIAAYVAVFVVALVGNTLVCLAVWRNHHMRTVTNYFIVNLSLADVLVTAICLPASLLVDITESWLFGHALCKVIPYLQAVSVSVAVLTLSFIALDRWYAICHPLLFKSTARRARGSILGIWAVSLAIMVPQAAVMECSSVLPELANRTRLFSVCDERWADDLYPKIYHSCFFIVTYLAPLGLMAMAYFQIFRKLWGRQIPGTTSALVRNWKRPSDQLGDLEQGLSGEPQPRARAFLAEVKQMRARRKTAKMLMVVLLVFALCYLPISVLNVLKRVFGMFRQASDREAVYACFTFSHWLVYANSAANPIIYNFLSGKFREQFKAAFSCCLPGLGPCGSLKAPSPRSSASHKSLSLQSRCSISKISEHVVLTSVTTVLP

| SMILES | Ki [nM] |
| --- | --- |
| COc1cc(F)c(CN2C(=O)N(c3cnc(OC)c(OC)c3)S(=O)(=O)c3ccccc32)c(F)c1 | 2.51 |
| CNc1cc(N2C(=O)N(Cc3c(F)cc(OC)cc3F)c3ncccc3S2(=O)=O)cnc1OC | 1.26 |
| COc1ccc(N2C(=O)N(Cc3c(F)cc(F)cc3F)c3ncccc3S2(=O)=O)nc1OC | 25.1 |
| COc1cc(N2C(=O)N(Cc3c(F)cc(F)cc3F)c3ccccc3S2(=O)=O)cnc1OC | 12.6 |

test system: not listed separately; assay: Half life in beagle dog at 2 mg/kg, po; type: ADME, organism-based, Canis lupus familiaris; conditions: in vivo

| SMILES | half-life [min] |
| --- | --- |
| COc1cc(N2C(=O)N(Cc3c(F)cc(F)cc3F)c3ccccc3S2(=O)=O)cnc1OC | 636 |

molecular target: T2, Orexin receptor type 2 (Homo sapiens) (UniProt O43614); conditions: not given
T2 sequence (whole entry): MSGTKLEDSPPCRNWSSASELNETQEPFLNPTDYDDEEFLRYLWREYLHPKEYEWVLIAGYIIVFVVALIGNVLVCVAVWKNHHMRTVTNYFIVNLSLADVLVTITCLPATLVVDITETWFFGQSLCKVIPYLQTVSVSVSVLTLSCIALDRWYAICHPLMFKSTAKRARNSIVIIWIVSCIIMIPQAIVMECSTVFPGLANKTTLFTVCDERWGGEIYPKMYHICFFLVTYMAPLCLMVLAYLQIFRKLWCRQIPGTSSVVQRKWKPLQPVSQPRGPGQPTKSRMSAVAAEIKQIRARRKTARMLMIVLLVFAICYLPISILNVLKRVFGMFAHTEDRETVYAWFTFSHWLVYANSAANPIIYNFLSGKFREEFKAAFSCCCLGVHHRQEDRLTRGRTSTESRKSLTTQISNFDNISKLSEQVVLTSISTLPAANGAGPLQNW

| SMILES | T1/2 [min] |
| --- | --- |
| COc1cc(N2C(=O)N(Cc3c(F)cc(F)cc3F)c3ccccc3S2(=O)=O)cnc1OC | 3 |

test system: not listed separately; assay: Oral bioavailability in beagle dog at 2 mg/kg; type: ADME, organism-based, Canis lupus familiaris; conditions: in vivo

| SMILES | bioavailability [%] |
| --- | --- |
| COc1cc(N2C(=O)N(Cc3c(F)cc(F)cc3F)c3ccccc3S2(=O)=O)cnc1OC | 100 |

test system: not listed separately; assay: Oral bioavailability in Sprague-Dawley rat at 2 mg/kg; type: ADME, organism-based; conditions: in vivo

| SMILES | bioavailability [%] |
| --- | --- |
| COc1ccc(N2C(=O)N(Cc3c(F)cc(F)cc3F)c3ncccc3S2(=O)=O)nc1OC | 34 |
| COc1cc(N2C(=O)N(Cc3c(F)cc(F)cc3F)c3ccccc3S2(=O)=O)cnc1OC | 29 |

test system: not listed separately; assay: Volume of distribution at steady state in beagle dog at 2 mg/kg, iv; type: ADME, organism-based, Canis lupus familiaris; conditions: in vivo, read-out: Vdss

| SMILES | Vd [L/kg] |
| --- | --- |
| COc1cc(N2C(=O)N(Cc3c(F)cc(F)cc3F)c3ccccc3S2(=O)=O)cnc1OC | 3.6 |

molecular target: T3, Orexin receptor type 2 (Homo sapiens, UniProt O43614); assay: Displacement of [3H]EMPA from human orexin receptor-2 expressed in HEK293 cells after 90 mins by scintillation counting; type: cell-based; conditions: not given
T3 sequence (O43614 whole entry): T2 sequence (whole entry)

| SMILES | Ki [nM] |
| --- | --- |
| COc1cc(F)c(CN2C(=O)N(c3cnc(OC)c(OC)c3)S(=O)(=O)c3ccccc32)c(F)c1 | 0.398 |
| CNc1cc(N2C(=O)N(Cc3c(F)cc(OC)cc3F)c3ncccc3S2(=O)=O)cnc1OC | 0.631 |
| COc1ccc(N2C(=O)N(Cc3c(F)cc(F)cc3F)c3ncccc3S2(=O)=O)nc1OC | 1.58 |
| COc1cc(F)c(CN2C(=O)N(c3ccc(OC)c(OC)n3)S(=O)(=O)c3ccccc32)c(F)c1 | 0.2 |
| COc1cc(N2C(=O)N(Cc3c(F)cc(F)cc3F)c3ccccc3S2(=O)=O)cnc1OC | 5.01 |
